In US8853164B2, “Oligopeptide improving differentiation of osteoblasts” (Osstemimplant Co., Ltd., priority 2010, dated 2014):

How the values were obtained:
[1] = tested on: BMP-specific receptor (BMPR-IA or BMPR-II); experiment: BMP specific binding assay (ELISA, absorbance at 595 nm); details: PEP7 1 μg/well coated, BMPR-IA or BMPR-II 1 μg/well; relative to PEP111
Experimental: PEP7 (1 μg/well) was added to an ELISA plate and incubated at 4° C. for 12 hours. After PEP7 was coated on the plate, BMPR-IA or BMPR-II (1 μg/well) was added thereto and reacted at room temperature for 2 hours, to obtain a PEP7-BMP receptor complex. A primary antibody specific for a BMP receptor (0.5 μg BMR-IA, BMPR-II) was added to the complex and reacted at room temperature for 1 hour. A secondary antibody (BMPR-IA or BMPR-II-Fc Ab-HRP) was then added to the resulting mixture and reacted at room temperature for 1 hour. After ABTS was added to the resulting mixture and reacted at room temperature for 30 minutes, an absorbance of the resulting mixture was measure at 595 nm (FIG. 1, wherein PEP111(A) means the sequence whose 9th amino acid was alanine, PEP111(P) means the sequence whose alanine was replaced with proline, and PEP111(T) means the sequence whose alanine was replaced with threonine).

MG63 cells [2] = experiment: Initial cell differentiation ability assay (ALP activity); format: cell-based; details: differentiation culture medium, measured at Day 3 and 8, relative to PEP111
Experimental: (§1) The effect of the oligopeptide disclosed herein on osteoblastic differentiation was examined by comparing ALP (alkaline phosphatase) activity as an initial differentiation marker of osteoblasts. In order to compare the differentiation ability of osteoblasts, MG63 cells were distributed to a 24-well plate at a concentration of 1×10^5 cells and incubated for 1 day. Then, the cell was treated with each of the PEP7 oligopeptide disclosed herein, and positive controls BMP-2 and PEP111 in a differentiation culture medium and incubated in a 37° C. CO2 incubator. The medium was replaced with a fresh one at 2-day intervals, the ALP activity was measured at Day 3 and 8 after the cultivation (FIG. 2).

MG63 cells [3] = experiment: Late cell differentiation ability assay (osteocalcin production, human ELISA kit); format: cell-based; details: culture solution at Day 14, relative to PEP111
Experimental: as §1
(§2) The effect of the PEP7 oligopeptide on osteoblastic differentiation was examined by comparing the production amount of osteocalcin and osteopontin as a late differentiation marker of osteoblasts. The cultivation was carried out according to the same conditions as described above. At Day 14, the culture solution was harvested, and the amount of osteocalcin and osteopontin therein was measured by using a human ELISA kit (FIGS. 3 and 4).

MG63 cells [4] = experiment: Late cell differentiation ability assay (osteopontin production, human ELISA kit); format: cell-based; details: culture solution at Day 14, relative to PEP111
Experimental: as §1, §2

MG63 cells [5] = experiment: Calcification ability assay (Alizarin red S staining); format: cell-based; details: Day 14, Alizarin red S staining, relative to PEP111
Experimental: as §1
In order to examine whether the oligopeptide disclosed herein can successfully induce osteogenic differentiation, extracellular matrix calcification was observed. The cultivation was carried out according to the same conditions as described above. At Day 14 and 21, the culture solution was harvested and subjected to Alizarin red S staining (FIG. 5).

binding affinity to a BMP-specific receptor, higher than PEP111 [1]: about 23%
Sequence: KIPKPSSVPTELSAISMLYL (PEP7)
ALP (alkaline phosphatase) activity, higher than PEP111 (MG63 cells [2]): 20% | osteocalcin production, more than PEP111 (MG63 cells [3]): ≥ 14% | osteopontin production, more than PEP111 (MG63 cells [4]): ≥ 21% | calcification ability, higher than PEP111 (MG63 cells [5]): about 19%
